Results as given in ChEMBL document CHEMBL4396865, “Current advances of triazole alcohols derived from fluconazole: Design, in vitro and in silico studies” (2019).
≈ marks a conversion by molar mass, not a printed value.

Experiments:
Format in all cases: functional
[1] = tested on: Candida albicans; experiment: Antifungal activity against Candida albicans CA98001
[2] = tested on: Candida albicans; experiment: Antifungal activity against Candida albicans DSY735
[3] = tested on: Candida albicans; experiment: Antifungal activity against Candida albicans CAAL-74
[4] = tested on: Pichia kudriavzevii; experiment: Antifungal activity against Candida krusei CK506
[5] = tested on: Pichia kudriavzevii; experiment: Antifungal activity against Candida krusei CK8
[6] = tested on: Nakaseomyces glabratus; experiment: Antifungal activity against Candida glabrata CG468
[7] = tested on: Candida parapsilosis; experiment: Antifungal activity against Candida parapsilosis CAPA1
[8] = tested on: Candida parapsilosis; experiment: Antifungal activity against Candida parapsilosis CAPA2
[9] = tested on: Aspergillus fumigatus; experiment: Antifungal activity against Aspergillus fumigatus AF98003
[10] = tested on: Candida albicans; experiment: Antifungal activity against fluconalzole-susceptible Candida albicans after 24 hrs
[11] = tested on: Candida parapsilosis; experiment: Antifungal activity against fluconalzole-susceptible Candida parapsilosis after 24 hrs; settings: Lodderomyces parapsilosis
[12] = tested on: Candida tropicalis; experiment: Antifungal activity against Candida tropicalis after 24 hrs by microbroth dilution method
[13] = tested on: Trichophyton rubrum; experiment: Antifungal activity against Trichophyton rubrum after 24 hrs by microbroth dilution method
[14] = tested on: Microsporum canis; experiment: Antifungal activity against Microsporum canis after 24 hrs by microbroth dilution method
[15] = tested on: Fonsecaea compacta; experiment: Antifungal activity against Fonsecaea compacta after 24 hrs by microbroth dilution method
[16] = tested on: Aspergillus fumigatus; experiment: Antifungal activity against Aspergillus fumigatus after 24 hrs by microbroth dilution method
[17] = tested on: Candida tropicalis; experiment: Potency index, ratio of fluconazole MIC to test compound MIC for Candida tropicalis
[18] = tested on: Candida albicans; experiment: Potency index, ratio of fluconazole MIC to test compound MIC for Candida albicans ATCC 76615
[19] = tested on: Cryptococcus neoformans; experiment: Potency index, ratio of fluconazole MIC to test compound MIC for activity against Cryptococcus neoformans ATCC 32609
[20] = tested on: Trichophyton rubrum; experiment: Potency index, ratio of fluconazole MIC to test compound MIC for Trichophyton rubrum
[21] = tested on: Microsporum canis; experiment: Potency index, ratio of fluconazole MIC to test compound MIC for Microsporum canis
[22] = tested on: Fonsecaea compacta; experiment: Potency index, ratio of fluconazole MIC to test compound MIC for Fonsecaea compacta
[23] = tested on: Aspergillus fumigatus; experiment: Potency index, ratio of fluconazole MIC to test compound MIC for Aspergillus fumigatus
[24] = Candida albicans, CA98001, read-out: MIC
[25] = Candida albicans, DSY735, read-out: MIC
[26] = Candida albicans, CAAL-74, read-out: MIC
[27] = Pichia kudriavzevii, CK506, read-out: MIC
[28] = Pichia kudriavzevii, CK8, read-out: MIC
[29] = Nakaseomyces glabratus, CG468, read-out: MIC
[30] = Lodderomyces parapsilosis, CAPA1, read-out: MIC
[31] = Lodderomyces parapsilosis, CAPA2, read-out: MIC

MIC [1, 24]	MIC [2, 25]	MIC [3, 26]	MIC [4, 27]	MIC [5, 28]	MIC [6, 29]	MIC [7, 30]	MIC [8, 31]	MIC [9]	MIC [10]	MIC [11]	Structure (SMILES)	also measured
									0.063 to 1 µg/mL (≈ 0.127 to 2.01 µM)	0.063 to 1 µg/mL (≈ 0.127 to 2.01 µM)	OC(Cn1cncn1)(Cn1cnc(SCc2ccc(Cl)c(Cl)c2)n1)c1ccc(F)cc1F (configuration not stated)	
									0.063 to 1 µg/mL (≈ 0.141 to 2.24 µM)	0.063 to 1 µg/mL (≈ 0.141 to 2.24 µM)	OC(Cn1cncn1)(Cn1cnc(SCc2cccc(F)c2)n1)c1ccc(F)cc1F (configuration not stated)	
									0.063 to 1 µg/mL (≈ 0.127 to 2.01 µM)	0.063 to 1 µg/mL (≈ 0.127 to 2.01 µM)	OC(Cn1cncn1)(Cn1cnc(SCc2ccc(Cl)cc2Cl)n1)c1ccc(F)cc1F (configuration not stated)	
									0.063 to 1 µg/mL (≈ 0.136 to 2.16 µM)	0.063 to 1 µg/mL (≈ 0.136 to 2.16 µM)	OC(Cn1cncn1)(Cn1cnc(SCc2ccc(Cl)cc2)n1)c1ccc(F)cc1F (configuration not stated)	

The remaining lines, values behind:

Structure (SMILES)	MIC [1, 24]	MIC [2, 25]	MIC [3, 26]	MIC [4, 27]	MIC [5, 28]	MIC [6, 29]	MIC [7, 30]	MIC [8, 31]	MIC [9]	MIC [10]	MIC [11]	also measured
CN(Cc1ccc(S(N)(=O)=O)cc1)CC(O)(Cn1cncn1)c1ccc(F)cc1F (configuration not stated)	0.001 to 0.069 µg/mL (≈ 0.00229 to 0.158 µM)	0.001 to 0.069 µg/mL (≈ 0.00229 to 0.158 µM)	0.001 to 0.069 µg/mL (≈ 0.00229 to 0.158 µM)	0.001 to 0.069 µg/mL (≈ 0.00229 to 0.158 µM)	0.001 to 0.069 µg/mL (≈ 0.00229 to 0.158 µM)	0.001 to 0.069 µg/mL (≈ 0.00229 to 0.158 µM)	0.001 to 0.069 µg/mL (≈ 0.00229 to 0.158 µM)	0.001 to 0.069 µg/mL (≈ 0.00229 to 0.158 µM)	0.767 to 3.57 µg/mL (≈ 1.75 to 8.16 µM)			
CC(C)NS(=O)(=O)c1ccc(CN(C)CC(O)(Cn2cncn2)c2ccc(F)cc2F)cc1 (configuration not stated)	0.001 to 0.069 µg/mL (≈ 0.00209 to 0.144 µM)	0.001 to 0.069 µg/mL (≈ 0.00209 to 0.144 µM)	0.001 to 0.069 µg/mL (≈ 0.00209 to 0.144 µM)	0.001 to 0.069 µg/mL (≈ 0.00209 to 0.144 µM)	0.001 to 0.069 µg/mL (≈ 0.00209 to 0.144 µM)	0.001 to 0.069 µg/mL (≈ 0.00209 to 0.144 µM)	0.001 to 0.069 µg/mL (≈ 0.00209 to 0.144 µM)	0.001 to 0.069 µg/mL (≈ 0.00209 to 0.144 µM)	0.767 to 3.57 µg/mL (≈ 1.6 to 7.44 µM)			
OC(CN(Cc1ccc(F)cc1F)C1CC1)(Cn1cncn1)c1ccc(F)cc1F (configuration not stated)												MIC80 [12]: 0.125 µg/mL (≈ 0.297 µM); MIC80 [13]: 0.125 µg/mL (≈ 0.297 µM); MIC80 [14]: 0.125 µg/mL (≈ 0.297 µM); MIC80 [15]: 0.125 µg/mL (≈ 0.297 µM); MIC80 [16]: 0.125 µg/mL (≈ 0.297 µM); Ratio [17]: 4; Ratio [18]: 4; Ratio [19]: 4; Ratio [20]: 4; Ratio [21]: 4; Ratio [22]: 4; Ratio [23]: 4
CN(Cc1ccc(S(=O)(=O)Nc2ccccc2)cc1)CC(O)(Cn1cncn1)c1ccc(F)cc1F (configuration not stated)	0.001 to 0.069 µg/mL (≈ 0.00195 to 0.134 µM)	0.001 to 0.069 µg/mL (≈ 0.00195 to 0.134 µM)	0.001 to 0.069 µg/mL (≈ 0.00195 to 0.134 µM)	0.001 to 0.069 µg/mL (≈ 0.00195 to 0.134 µM)	0.001 to 0.069 µg/mL (≈ 0.00195 to 0.134 µM)	0.001 to 0.069 µg/mL (≈ 0.00195 to 0.134 µM)	0.001 to 0.069 µg/mL (≈ 0.00195 to 0.134 µM)	0.001 to 0.069 µg/mL (≈ 0.00195 to 0.134 µM)	0.767 to 3.57 µg/mL (≈ 1.49 to 6.95 µM)			
OC(Cn1cncn1)(Cn1cnc(SCc2ccccc2F)n1)c1ccc(F)cc1F (configuration not stated)										0.063 to 1 µg/mL (≈ 0.141 to 2.24 µM)	0.063 to 1 µg/mL (≈ 0.141 to 2.24 µM)	
CCCNS(=O)(=O)c1ccc(CN(C)CC(O)(Cn2cncn2)c2ccc(F)cc2F)cc1 (configuration not stated)	0.001 to 0.069 µg/mL (≈ 0.00209 to 0.144 µM)	0.001 to 0.069 µg/mL (≈ 0.00209 to 0.144 µM)	0.001 to 0.069 µg/mL (≈ 0.00209 to 0.144 µM)	0.001 to 0.069 µg/mL (≈ 0.00209 to 0.144 µM)	0.001 to 0.069 µg/mL (≈ 0.00209 to 0.144 µM)	0.001 to 0.069 µg/mL (≈ 0.00209 to 0.144 µM)	0.001 to 0.069 µg/mL (≈ 0.00209 to 0.144 µM)	0.001 to 0.069 µg/mL (≈ 0.00209 to 0.144 µM)	0.767 to 3.57 µg/mL (≈ 1.6 to 7.44 µM)			
O=[N+]([O-])c1ccc(CSc2ncn(CC(O)(Cn3cncn3)c3ccc(F)cc3F)n2)cc1 (configuration not stated)										0.063 to 1 µg/mL (≈ 0.133 to 2.11 µM)	0.063 to 1 µg/mL (≈ 0.133 to 2.11 µM)	
CN(Cc1ccc(S(=O)(=O)Nc2ccc([N+](=O)[O-])cc2)cc1)CC(O)(Cn1cncn1)c1ccc(F)cc1F (configuration not stated)	0.001 to 0.069 µg/mL (≈ 0.00179 to 0.124 µM)	0.001 to 0.069 µg/mL (≈ 0.00179 to 0.124 µM)	0.001 to 0.069 µg/mL (≈ 0.00179 to 0.124 µM)	0.001 to 0.069 µg/mL (≈ 0.00179 to 0.124 µM)	0.001 to 0.069 µg/mL (≈ 0.00179 to 0.124 µM)	0.001 to 0.069 µg/mL (≈ 0.00179 to 0.124 µM)	0.001 to 0.069 µg/mL (≈ 0.00179 to 0.124 µM)	0.001 to 0.069 µg/mL (≈ 0.00179 to 0.124 µM)	0.767 to 3.57 µg/mL (≈ 1.37 to 6.39 µM)			
CN(Cc1ccc(-c2ccc(C#N)cc2)cc1)CC(O)(Cn1cncn1)c1ccc(F)cc1F (configuration not stated)									2.76 µg/mL (≈ 6.01 µM)			MIC [1]: 0.001 to 1.32 µg/mL; MIC [2]: 0.001 to 1.32 µg/mL; MIC [3]: 0.001 to 1.32 µg/mL; MIC [4]: 0.001 to 1.32 µg/mL; MIC [5]: 0.001 to 1.32 µg/mL; MIC [6]: 0.001 to 1.32 µg/mL; MIC [7]: 0.001 to 1.32 µg/mL; MIC [8]: 0.001 to 1.32 µg/mL
CC(C)c1ccc(NS(=O)(=O)c2ccc(CN(C)CC(O)(Cn3cncn3)c3ccc(F)cc3F)cc2)cc1 (configuration not stated)	0.001 to 0.069 µg/mL (≈ 0.0018 to 0.124 µM)	0.001 to 0.069 µg/mL (≈ 0.0018 to 0.124 µM)	0.001 to 0.069 µg/mL (≈ 0.0018 to 0.124 µM)	0.001 to 0.069 µg/mL (≈ 0.0018 to 0.124 µM)	0.001 to 0.069 µg/mL (≈ 0.0018 to 0.124 µM)	0.001 to 0.069 µg/mL (≈ 0.0018 to 0.124 µM)	0.001 to 0.069 µg/mL (≈ 0.0018 to 0.124 µM)	0.001 to 0.069 µg/mL (≈ 0.0018 to 0.124 µM)	0.767 to 3.57 µg/mL (≈ 1.38 to 6.42 µM)			
